Data reported in PMC9784689, “Bioactivity Profiling of In Silico Predicted Linear Toxins from the Ants Myrmica rubra and Myrmica ruginodis” (Toxins, 2022).
No end group written: not given here.

Columns and labels:
[1] = tested on: Staphylococcus epidermidis (ATCC 35984; DSM 28319); conditions: S. epidermidis, 100 µM, after 48 h, MH II medium, 37 °C, OD600 normalized to untreated bacteria, triplicate
[2] = tested on: Micrococcus luteus (DSM 20030); conditions: at least 95% growth inhibition, nine log2 dilutions, triplicate, MH II, 48 h
Description: (§1) Cryo-conserved cultures (Table 3) were transferred with a sterile inoculation loop to tryptic soy agar (TSA) plates (Carl Roth) sealed with Parafilm (BEMIS, Neenah, WI, USA), and were incubated for 1–2 days at 37 °C depending on growth rates. Plates were then stored at 4 °C. For each of the three replicates, single colonies were picked with a sterile pipette tip, transferred into 2–3 mL Mueller-Hinton II (MH II) medium (BD, Heidelberg, Germany) and cultivated for ~24 h in unsealed 15 mL reaction tubes at 37 °C, shaking at 180 rpm. […] We measured the optical density at 600 nm (OD600) by transferring 1 mL of bacterial suspension to a polystyrene cuvette (SARSTED, Nümbrecht, Germany) in an Ultrospec 10 photometer (Biochrome, Cambridge, UK). […]
(§2) The experiments were carried out in 96-multiwell plates with a final volume of 100 µL per well (50 µL of bacterial suspension; 50 µL of testing peptide with a final concentration of 1.9% DMSO). […] The OD600 was measured after 0, 24, and 48 h using a BioTek Eon microplate reader and Gen5 v2.09. One experiment was carried out with automatic OD600 measurement every 20 min with a prior 30 s double orbital rotation at 237 rpm with overall incubation at 37 °C for 60 h in the microplate reader. […]

[3] = tested on: Escherichia coli DE3 (BL21(DE3)); conditions: E. coli, 100 µM, after 48 h, MH II medium, 37 °C, OD600 normalized to untreated bacteria, triplicate
[4] = tested on: Listeria monocytogenes (DSM 20600); conditions: L. monocytogenes, 100 µM, after 48 h, MH II medium, 37 °C, OD600 normalized to untreated bacteria, triplicate
[5] = tested on: Micrococcus luteus (DSM 20030); type: cell-based; conditions: 20 µL per dilution from 48 h MIC experiments plated on TSA, n = 2
MDCK II cells = conditions: MDCK II cells, 100 µM, 1% DMSO, 48 h, CellTiter-Glo luminescence, triplicate
[6] = tested on: Escherichia coli DE3 (BL21(DE3)); type: cell-based; conditions: 20 µL per dilution from 48 h MIC experiments plated on TSA, n = 2
[7] = tested on: Micrococcus luteus (DSM 20030); conditions: M. luteus, 100 µM, after 48 h, MH II medium, 37 °C, OD600 normalized to untreated bacteria, triplicate
[8] = tested on: Staphylococcus epidermidis (ATCC 35984; DSM 28319); conditions: at least 95% growth inhibition, nine log2 dilutions, triplicate, MH II, 48 h
Description: as §1, §2

[9] = tested on: Staphylococcus epidermidis (ATCC 35984; DSM 28319); type: cell-based; conditions: 20 µL per dilution from 48 h MIC experiments plated on TSA, n = 2
[10] = tested on: Listeria monocytogenes (DSM 20600); type: cell-based; conditions: 20 µL per dilution from 48 h MIC experiments plated on TSA, n = 2
[11] = tested on: Escherichia coli DE3 (BL21(DE3)); conditions: at least 95% growth inhibition, nine log2 dilutions, triplicate, MH II, 48 h
Description: as §1, §2

[12] = tested on: Staphylococcus aureus (DSM 2569); conditions: S. aureus, 100 µM, after 48 h, MH II medium, 37 °C, OD600 normalized to untreated bacteria, triplicate
[13] = tested on: Staphylococcus aureus (DSM 2569); conditions: at least 95% growth inhibition, nine log2 dilutions, triplicate, MH II, 48 h
Description: as §1, §2

INPKLWLKLF-NH2 [U-MYRTX-Mrug5a]
Inhibition of growth [1]: 97% | MIC [2]: 6.25 µM | Inhibition of growth [3]: 97% | Inhibition of growth [4]: 81% | MBC [5]: 6.25 µM | Cytotoxicity (cell viability), in words (MDCK II cells): negligible cytotoxicity | MBC [6]: 50 µM | Inhibition of growth [7]: 89% | MIC [8]: 50 µM | MBC [9]: 50 µM | MBC [10]: 50 µM | MIC [11]: 50 µM | Inhibition of growth [12]: 96% | MIC [13]: 100 µM
